Experimental data: article PMC11385386 (Nature Communications, 2024)
pKd: −log10 of the molar value.

Molecular target: IDH1^R132H (Homo sapiens, UniProt O75874, R132H)
Assay: Affinity of IDH1 R132H for NADPH
Type: binding

Sequence of IDH1^R132H (O75874 whole entry R132H): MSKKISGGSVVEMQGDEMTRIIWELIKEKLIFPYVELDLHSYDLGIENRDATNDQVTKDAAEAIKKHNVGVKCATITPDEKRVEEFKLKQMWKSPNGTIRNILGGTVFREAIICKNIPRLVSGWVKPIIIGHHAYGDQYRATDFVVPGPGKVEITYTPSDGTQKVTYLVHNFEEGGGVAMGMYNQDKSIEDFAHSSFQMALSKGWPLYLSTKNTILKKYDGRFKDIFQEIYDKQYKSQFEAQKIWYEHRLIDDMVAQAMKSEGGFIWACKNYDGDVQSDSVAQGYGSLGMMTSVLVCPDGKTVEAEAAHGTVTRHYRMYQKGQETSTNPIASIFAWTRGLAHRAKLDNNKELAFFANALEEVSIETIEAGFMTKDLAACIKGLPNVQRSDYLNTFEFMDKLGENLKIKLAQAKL

NC(=O)C1=CN([C@@H]2O[C@H](COP(=O)(O)OP(=O)(O)OC[C@H]3O[C@@H](n4cnc5c(N)ncnc54)[C@H](OP(=O)(O)O)[C@@H]3O)[C@@H](O)[C@H]2O)C=CC1 [NADPH]
pKd: ~7.30
